Measurements reported in the supplement of paper PMC11061612.

Assays:
Assay in all cases: combination Emax (second highest fraction inhibited in the dose matrix, 72 h); higher = more inhibition; extreme values may be limits of the assay
[1] = tested on: BL-41 (Burkitt's Lymphoma)
Method in brief: (§1)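 Cell lines grown in DMEM/F12 or RPMI with 10% FBS were plated in 1536-well plates and held 24 hours at 37°C, 5% CO2 before 72 hours of exposure to two-drug dose matrices, with DMSO typically at 0.2%. CellTiter-Glo 2.0 luminescence gave viability, which was converted to inhibition. Vehicle wells were set to 0 and blank wells to 1. Combination Emax is the second-highest inhibition in the matrix, and Bliss excess is the observed combination effect minus the expected EA + EB − EA·EB, where EA and EB are the single-agent effects.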

[2] = tested on: CHP-212 (Neuroblastoma)
Method in brief: as §1

[3] = tested on: COLO-678 (Colorectal Carcinoma)
Method in brief: as §1

[4] = tested on: ES1 (Ewing's Sarcoma)
Method in brief: as §1

[5] = tested on: ES8 (Ewing's Sarcoma)
Method in brief: as §1

[6] = tested on: GR-ST (B-Lymphoblastic Leukemia)
Method in brief: as §1

[7] = tested on: HDQ-P1 (Breast Carcinoma)
Method in brief: as §1

[8] = tested on: K-562 (Chronic Myelogenous Leukemia)
Method in brief: as §1

[9] = tested on: KARPAS-45 (T-Lymphoblastic Leukemia)
Method in brief: as §1

[10] = tested on: KCL-22 (Chronic Myelogenous Leukemia)
Method in brief: as §1

[11] = tested on: KM12 (Colorectal Carcinoma)
Method in brief: as §1

[12] = tested on: LN-18 (Glioblastoma)
Method in brief: as §1

[13] = tested on: MEL-JUSO (Melanoma)
Method in brief: as §1

[14] = tested on: NCI-H1792 (Lung Adenocarcinoma)
Method in brief: as §1

[15] = tested on: NCI-H847 (Small Cell Lung Carcinoma)
Method in brief: as §1

[16] = tested on: P12-ICHIKAWA (T-Lymphoblastic Leukemia)
Method in brief: as §1

[17] = tested on: PANC-08-13 (Pancreatic Carcinoma)
Method in brief: as §1

[18] = tested on: SR (Other Blood Carcinomas)
Method in brief: as §1

[19] = tested on: SW1417 (Colorectal Carcinoma)
Method in brief: as §1

[20] = tested on: U251 (Low Grade Glioma)
Method in brief: as §1

SMILES	combination Emax [1]	combination Emax [2]	combination Emax [3]	combination Emax [4]	combination Emax [5]	combination Emax [6]	combination Emax [7]	combination Emax [8]	combination Emax [9]	combination Emax [10]	combination Emax [11]	combination Emax [12]	combination Emax [13]	combination Emax [14]	combination Emax [15]	combination Emax [16]	combination Emax [17]	combination Emax [18]	combination Emax [19]	combination Emax [20]
CC1(C)CCC(CN2CCN(c3ccc(C(=O)NS(=O)(=O)c4ccc(NCC5CCOCC5)c([N+](=O)[O-])c4)c(Oc4cnc5[nH]ccc5c4)c3)CC2)=C(c2ccc(Cl)cc2)C1 [Venetoclax] + C[C@@H]1COCCN1C2=NC(=NC(=C2)C3(CC3)[S@](=N)(=O)C)C4=C5C=CNC5=NC=C4 [AZD6738] (first compound max 1 µM, 7x7, partner max 10 µM)	0.999	0.792	0.164	0.942	0.934	0.762	0.399	0.788	0.941	0.951	0.641	0.745	0.483	0.725	0.999	0.986	0.421	0.973	0.391	0.518
CC1(C)CCC(CN2CCN(c3ccc(C(=O)NS(=O)(=O)c4ccc(NCC5CCOCC5)c([N+](=O)[O-])c4)c(Oc4cnc5[nH]ccc5c4)c3)CC2)=C(c2ccc(Cl)cc2)C1 [Venetoclax] + C[C@@H](Nc1cc(F)cc(F)c1)c1cc(C(=O)N(C)C)cc2c(=O)cc(N3CCOCC3)oc12 [AZD8186] (first compound max 1 µM, 7x7, partner max 3 µM)	0.257	0.314	0.119	0.395	0.834	0.633	0.211	0.347	0.833	0.299	0.0675	0.378	0.0937	0.109	0.844	0.0737	0.184	0.81	0.172	0.0464
CC1(C)CCC(CN2CCN(c3ccc(C(=O)NS(=O)(=O)c4ccc(NCC5CCOCC5)c([N+](=O)[O-])c4)c(Oc4cnc5[nH]ccc5c4)c3)CC2)=C(c2ccc(Cl)cc2)C1 [Venetoclax] + Cc1cc2ncnn2cc1Nc1ncc2c(n1)n(C1CCOCC1)c(=O)n2C [AZD7648] (first compound max 1 µM, 7x7, partner max 10 µM)	0.17	0.314	0.16	0.46	0.427	0.679	0.189	0.339	0.6	0.159	0.21	0.378	0.183	0.397	0.735	0.298	0.218	0.82	0.25	0.202
CC1(C)CCC(CN2CCN(c3ccc(C(=O)NS(=O)(=O)c4ccc(NCC5CCOCC5)c([N+](=O)[O-])c4)c(Oc4cnc5[nH]ccc5c4)c3)CC2)=C(c2ccc(Cl)cc2)C1 [Venetoclax] + Cn1cnc2c(F)c(Nc3ccc(Br)cc3Cl)c(C(=O)NOCCO)cc21 [Selumetinib] (first compound max 1 µM, 7x7, partner max 3 µM)	0.196	0.878	0.485	0.338	0.195	0.481	0.182	0.414	0.317	0.318	0.555	0.17	0.305	0.251	0.168	0.23	0.184	0.791	0.489	0.137
